Assay results as given in PubChem BioAssay (NCI).
Several values for one entry are separate records, joined by “and”; a condition that tells them apart may be missing. Equal values may be shown once.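 Five compound concentrations were applied to cells in 96-well plates for 48 hours; endpoints were derived by simple linear interpolation of the resulting dose-response curve. Abbreviation: GI50, concentration required for 50% inhibition of growth. TGI: concentration producing complete growth inhibition.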

Legend:
Test in all cases: inhibition of tumour cell growth, NCI panel, 48 h
CCRF-CEM leukemia = test system: CCRF-CEM leukemia
HS 578T breast = test system: HS 578T breast
PC-3 prostate = test system: PC-3 prostate
DMS 273 small cell lung = test system: DMS 273 small cell lung
XF 498 CNS = test system: XF 498 CNS
DMS 114 small cell lung = test system: DMS 114 small cell lung
KM20L2 colon = test system: KM20L2 colon
M19-MEL melanoma = test system: M19-MEL melanoma
SNB-78 CNS = test system: SNB-78 CNS
LXFL 529 NSCLC = test system: LXFL 529 NSCLC
HOP-18 NSCLC = test system: HOP-18 NSCLC
DLD-1 colon = test system: DLD-1 colon

SMILES | TGI (CCRF-CEM leukemia) [µM] | TGI (HS 578T breast) [µM] | TGI (PC-3 prostate) [µM] | other results
CC12NC(=C(C#N)C#N)C(C#N)=C3NC(N)=C(C#N)C(=C31)Oc1ccccc12 (configuration not stated) | > 100 | > 100 | > 100 | 
O=C(O)c1cc(N=Nc2ccc([N+](=O)[O-])cc2)ccc1O | > 100 | > 100 | > 100 | 
[N-]=[N+]=CC(=O)C1(C(=O)C=[N+]=[N-])CC1 | > 100 |  |  | TGI (DMS 273 small cell lung): > 100 µM; TGI (XF 498 CNS): > 100 µM; TGI (DMS 114 small cell lung): > 100 µM; TGI (KM20L2 colon): > 100 µM; TGI (M19-MEL melanoma): > 100 µM; TGI (SNB-78 CNS): > 100 µM; TGI (LXFL 529 NSCLC): > 100 µM; TGI (HOP-18 NSCLC): > 100 µM
Cc1ccc(Nc2c3c(c(C#N)c4nc5ccccc5n24)CCCC3)cc1 | 31.6 | > 100 | 87.2 | 
O=c1oc2ccc([N+](=O)[O-])cc2nc1/C=C(\O)c1ccccc1 | > 100 | > 100 | > 100 | 
Cc1cc(C)cc(Nc2nnc3n2S(=O)(=O)c2cc(C)c(Cl)cc2S3)c1 | > 100 | 26.9 | 10.1 | 
Oc1ccc(-c2c3ccccc3c(-c3ccc(O)cc3)c3ccccc23)cc1 | > 100 |  |  | TGI (DMS 273 small cell lung): > 100 µM; TGI (XF 498 CNS): > 100 µM; TGI (DMS 114 small cell lung): > 100 µM; TGI (KM20L2 colon): > 100 µM; TGI (DLD-1 colon): > 100 µM; TGI (M19-MEL melanoma): > 100 µM; TGI (SNB-78 CNS): > 100 µM; TGI (LXFL 529 NSCLC): > 100 µM; TGI (HOP-18 NSCLC): > 100 µM
Oc1cc(O)c2c(c1)O[C@H](c1ccc(O)c(O)c1)[C@@H](O)C2 | > 100 | > 100 | > 100 | 
c1ccc(CN2CCC(=NN3CCCCC3)CC2)cc1 | > 100 | > 100 | > 100 | 
C/C(=N\Nc1ccccc1)c1sc(-c2nc(C)c(/C(C)=N/Nc3ccccc3)s2)nc1C | > 100 |  |  | TGI (DMS 273 small cell lung): > 21.1 µM; TGI (XF 498 CNS): > 100 µM; TGI (DMS 114 small cell lung): > 30.8 µM; TGI (DLD-1 colon): > 100 µM; TGI (M19-MEL melanoma): > 85.2 µM; TGI (SNB-78 CNS): > 100 µM; TGI (LXFL 529 NSCLC): > 82 µM; TGI (HOP-18 NSCLC): > 96.6 µM
N=c1c2sc3nc4ccccc4n3c2ncn1Cc1ccccc1 | > 100 | > 100 | > 100 | 
COc1ccc(C=Nc2ccc(-c3nc4ccccc4s3)cc2)cc1OC | 55 | > 100 | 69.9 | 
C/C=C/CC(C(=O)OCC)(N(C)C(=O)OC(C)(C)C)S(=O)(=O)c1ccc(C)cc1 (configuration not stated) | > 100 | > 100 | > 100 | 
CCN(CC)CC1CCCCN1CC(=O)N1c2cc(Cl)ccc2NC(=O)CC1C (configuration not stated) | > 100 |  |  | TGI (DMS 273 small cell lung): > 100 µM; TGI (XF 498 CNS): > 100 µM; TGI (DMS 114 small cell lung): > 100 µM; TGI (KM20L2 colon): > 100 µM; TGI (DLD-1 colon): > 100 µM; TGI (M19-MEL melanoma): > 100 µM; TGI (SNB-78 CNS): > 100 µM; TGI (LXFL 529 NSCLC): > 100 µM
Cc1ccc(S(=O)(=O)N(CC(O)COc2ccccc2)c2c(F)c(F)cc(F)c2F)cc1 (configuration not stated) | 93.6 | 50.8 | 45 | 
Cc1ccc(S(=O)(=O)NC(=O)Nc2c(S(N)(=O)=O)cc(S(N)(=O)=O)c(Cl)c2Cl)cc1 | > 100 | > 100 | > 100 | 

SMILES | TGI (CCRF-CEM leukemia) [µM] | TGI (HS 578T breast) [µM] | TGI (PC-3 prostate) [µM] | other results
COc1ccc(/C=C2/N=C(N/N=C\C(O)C(O)C(O)CO)NC2=O)cc1 (configuration not stated) | > 100 | > 100 | > 100 | GI50 (PC-3 prostate): > 100 µM and 39.3 µM
CCC(=O)OC1CCn2c1nc1c2C(=O)C(C)=C(NC(C)=O)C1=O (configuration not stated) | 3.89 |  |  | TGI (DMS 273 small cell lung): 3.37 µM; TGI (DMS 114 small cell lung): 1.62 µM; TGI (DLD-1 colon): 3.96 µM; TGI (M19-MEL melanoma): 3.31 µM; TGI (SNB-78 CNS): 4.35 µM; TGI (LXFL 529 NSCLC): 2.72 µM
Cc1ccsc1/C=N/NC1=NCCN1 | > 100 | > 100 | > 100 | 
N#C/C(=C\c1ccc(O)c(O)c1)c1c(C#N)c(N)nn1-c1ccccc1 | 37.5 |  |  | TGI (DMS 273 small cell lung): 18.5 µM; TGI (KM20L2 colon): > 100 µM; TGI (DLD-1 colon): > 100 µM; TGI (M19-MEL melanoma): 94.6 µM; TGI (SNB-78 CNS): > 100 µM; TGI (LXFL 529 NSCLC): 92.5 µM; TGI (HOP-18 NSCLC): 29.1 µM
CC(=O)c1ccc(N2C(=O)C3c4[nH]c5ccccc5c4C4CCC(C(C)(C)C)CC4C3C2=O)cc1 (configuration not stated) | > 100 |  |  | TGI (DMS 273 small cell lung): 33.3 µM; TGI (DMS 114 small cell lung): 59.8 µM; TGI (KM20L2 colon): 36.4 µM; TGI (DLD-1 colon): > 100 µM; TGI (M19-MEL melanoma): 42.1 µM; TGI (SNB-78 CNS): 74.9 µM; TGI (LXFL 529 NSCLC): > 100 µM; TGI (HOP-18 NSCLC): > 100 µM
O=C(N/N=C(/COc1ccccc1)N=Cc1ccncc1)c1ccncc1 | > 100 | > 100 | > 100 | 
COc1c(C)c(C/C=C(\C)CC/C=C(\C)CC/C=C(\C)CCC=C(C)C)c(OC)c(OC)c1OC | > 100 | > 100 | > 100 | 
CCOC(=O)NN(C(=O)OCC)c1ccc(N=Nc2ccc(OC)cc2)n1C |  | > 100 | 53.4 | 
CC(=O)O[C@@H]1[C@H](OC2CCCCC2(c2ccccc2)c2ccccc2)O[N+]([O-])=CC12CCCCC2 (some centres not stated) | 15.7 | 43.3 | 22.6 | 
C=C1C(=O)OC2C1CCC(=C)C1CC(O)C(=C)C12 (configuration not stated) | 7.44 | > 100 | 28 | 
O=Cc1c2c(cc3c1CC1(C3)Cc3cc4c(c(C=O)c3C1)CCCC4)CCCC2 | 30.2 | > 31.6 | > 31.6 | 
c1ccc2c(c1)nnn2CNc1ccc(N2CCCCC2)cc1 | > 100 |  |  | TGI (DMS 273 small cell lung): > 100 µM; TGI (XF 498 CNS): > 100 µM; TGI (DMS 114 small cell lung): > 100 µM; TGI (KM20L2 colon): > 100 µM; TGI (DLD-1 colon): > 100 µM; TGI (SNB-78 CNS): > 100 µM; TGI (LXFL 529 NSCLC): > 100 µM; TGI (HOP-18 NSCLC): > 100 µM
O=C1c2ccccc2N=C(c2cc3c(cc2Cl)Sc2nccn2S3(=O)=O)OS(=O)(=O)N1c1ccccc1 | 41.7 | > 100 | > 100 | 
CN(C)CCCNC(=O)N/N=C/c1ccc(O)cc1 | > 100 | > 100 | > 100 | 
O=[N+]([O-])c1cc(C2(N3CCCCC3)CCCCC2)sc1Br | 7.33 | > 58.5 | 13.1 | 
CCOC(=O)Cc1c(C)c2ccc(OC(C)=O)c(OC(C)=O)c2oc1=O | 28.5 | > 100 | > 100 | 
